Values belong to the compound of their own block, whether it stands above or below them.
Legend:
[1] = RMS roughness of wax-coated surfaces by confocal microscopy; assay type: physicochemical; conditions: for Roughness (RMS): spray coated on Si wafer, 5 seconds×4 cycles, wax solution; for RMS roughness growth: thermally-evaporated on silicon substrate
Description: RMS roughness (Rq) is typically calculated according to the following formula: […]
Confocal microscopy (Leica DCM3D) was used for roughness measurements. Time-dependent measurements were performed on counterpart samples having non-fluorinated wax coatings that were used for XRD time-dependent measurements. In situ time-resolved confocal microscopy was used for observation of the change in surface roughness over a constant 100 μm×100 μm area for duration of 160 hours. A topographical image was collected every hour. These experiments encompassed the same duration and time intervals as the time-dependent XRD measurements hereinabove.
Similar time-dependent measurements were performed for samples coated with fluorinated wax, maintained at a temperature of 90° C., during 60 hours. These experiments were supported by time-dependent XRD measurements performed at 90° C. during 60 hours, with 1 hour time intervals.
(§1) Contact angles and RMS roughness were measured as described in Example 2 hereinabove.

[2] = Static contact angle (wettability) of wax-coated surfaces, Attension Theta tensiometer; assay type: physicochemical; parameters: C.A. Cyclohexane / C.A. hexadecane / C.A. Water / C.A. Glycerol / C.A. Ethylene Glycol / C.A. Benzyl Chloride / C.A. Clorobenzene: unit not given here; conditions: for C.A. Ethylene Glycol: liquid Ethylene Glycol; for C.A. Glycerol: liquid Glycerol; for C.A. Water: liquid Water; for C.A. Benzyl Chloride: liquid Benzyl Chloride; for C.A. Clorobenzene: liquid Clorobenzene; for C.A. Cyclohexane: liquid Cyclohexane; for C.A. hexadecane: liquid hexadecane
Excerpt: Typically, but not exclusively, in order to measure the static contact angle, a drop of liquid is formed on the tip of a hypodermic needle attached to a screw syringe. The syringe is fastened to a stand which reduces any irregularities that are produced by manual drop deposition. The substrate is then raised until it touches the drop using the Y control of the stage. The drop is the then brought into the field of view and onto the focal point of the microscope by x-y translation of the stage and image is captured. The static contact angle is calculated by methods known in the art. An exemplary methodology and system for measuring a static contact angle in described in Example s in the Examples section that follows.
The wettability of the surfaces was characterized using water contact angle (C.A.) measurements recorded with an Attension Theta tensiometer. The water wettability measurements were performed with a constant high-purity water drop volume of 7 μL.
Oil contact angles were determined for the following liquids: Glycerol, ethylene glycol, olive oil, benzyl chloride, clorobenzene, cyclohexane and hexadecane, using an Attension Theta tensiometer with approximately 8 μL liquid drops.
Time-dependent contact angle measurements were performed during a period of two weeks.
as §1

P. aeruginosa biofilm = assay: Biofilm formation on wax-coated glass substrates, LIVE/DEAD staining, CLSM; assay type: cell-based, Pseudomonas aeruginosa PA14; conditions: glass substrate with thermally evaporated wax; FIGS. 8A-E
Description: Pseudomonas aeruginosa PA14 was obtained from Shlomo Sela's lab strain collection (Agricultural Research Organization, Israel).
(§2) For biofilm generation, bacteria were grown to stationary phase in LB (Lysogeny broth) medium at 37° C. in shaking culture. The generated cultures were seeded (by dilution 1:100) into sterile polystyrene multidishes containing different substrates and inoculated into fresh media (37° C., 5 95% air/5% CO2 (v/v) statically without agitation.
(§3) To visualize the constructed biofilms, the substrates were removed from the wells, washed with PBS buffer and stained with FilmTracer™ LIVE/DEAD Biofilm Viability Kit (Molecular Probes, OR) according to the manufacturer's protocol. The stained samples were observed using an Olympus IX81 confocal laser scanning microscope (CLSM, Japan). Live cells were stained green, while dead cells were stained red. Fluorescence emission of the stained samples was measured using an Olympus IX81 CLSM equipped with 488-nm argon-ion and 543-nm helium-neon lasers.
(§4) Two different biofilm forming pathogenic bacteria, B. cereus (Gram positive) and P. aeruginosa (Gram negative), which are often encountered in clinical and industrial settings, were tested for their ability to form biofilm on glass substrates having thermally evaporated thereon the following wax materials: C24F50, C36H74, C40H82 and C44H90.

B. cereus 407 biofilms = assay: as above; assay type: cell-based, Bacillus cereus; conditions: glass substrate with thermally evaporated wax, in comparison to control glass surface; FIGS. 7A-7E
Description: Bacillus cereus 407 and ATCC 10987 stains were obtained from Michel Gohar's lab collection (INRA, France).
as §2, §3, §4

[3] = spray coated on Si wafer, 5 seconds×4 cycles, wax solution
[4] = thermally-evaporated wax on Silicon substrate
[5] = thermally evaporated on silicon wafer, maintained at 90° C., 18 hr
[6] = thermally evaporated on silicon wafer, maintained at 90° C., 20 hr
[7] = thermally evaporated on silicon wafer, maintained at 90° C., 22 hr
[8] = thermally evaporated on silicon wafer, maintained at 90° C., 30 hr
[9] = thermally evaporated on silicon wafer, maintained at 90° C., 40 hr
[10] = thermally evaporated on silicon wafer, maintained at 90° C., 50 hr
[11] = thermally evaporated on silicon wafer, maintained at 90° C., 60 hr

SMILES: FC(F)(F)C(F)(F)C(F)(F)C(F)(F)C(F)(F)C(F)(F)C(F)(F)C(F)(F)C(F)(F)C(F)(F)C(F)(F)C(F)(F)C(F)(F)C(F)(F)C(F)(F)F [C15, perfluoropentadecane]
- Roughness (RMS) [1]: 0.12 μm
- C.A. Ethylene Glycol [2, 3]: 59
- C.A. Glycerol [2, 3]: 110
- C.A. Water [2, 3]: 114

SMILES: FC(F)(F)C(F)(F)C(F)(F)C(F)(F)C(F)(F)C(F)(F)C(F)(F)C(F)(F)C(F)(F)C(F)(F)C(F)(F)C(F)(F)C(F)(F)C(F)(F)C(F)(F)C(F)(F)C(F)(F)C(F)(F)C(F)(F)C(F)(F)F [C20, perfluoroeicosane, reference compound]
- C.A. Benzyl Chloride [2, 4]: Fully wetted
- C.A. Clorobenzene [2, 4]: Fully wetted
- C.A. Cyclohexane [2, 4]: Fully wetted
- C.A. Ethylene Glycol [2, 4]: 122
- C.A. Glycerol [2, 4]: 120
- C.A. Water [2, 4]: 128
- C.A. hexadecane [2, 4]: Fully wetted

SMILES: FC(F)(F)C(F)(F)C(F)(F)C(F)(F)C(F)(F)C(F)(F)C(F)(F)C(F)(F)C(F)(F)C(F)(F)C(F)(F)C(F)(F)C(F)(F)C(F)(F)C(F)(F)C(F)(F)C(F)(F)C(F)(F)C(F)(F)C(F)(F)C(F)(F)C(F)(F)C(F)(F)C(F)(F)F [C24, perfluorotetracosane]
- P. aeruginosa biofilm formation on coated substrate (P. aeruginosa biofilm): substantially prevented the biofilm formation
- Roughness (RMS) [1]: 0.12 μm
- surface roughness (R.M.S.) ([1]; thermally-evaporated fluorinated wax, at 90° C. after a 60 hour time period): 0.9 μm
- surface roughness (R.M.S.), initial ([1]; thermally-evaporated fluorinated wax, before maintaining at 90° C.): 0.7 μm
- RMS roughness growth ([1]; 20 hours at 70° C.): about 0.06 μm
- RMS roughness growth ([1]; 20 hours at 80° C.): about 0.08 μm
- RMS roughness growth ([1]; maintained at 90° C.): about 0.4 μm
- B. cereus biofilm formation on coated substrate (B. cereus 407 biofilms): could not adhere successfully to form confluent biofilms
- C.A. Ethylene Glycol [2, 3]: 100
- C.A. Glycerol [2, 3]: 140
- C.A. Water [2, 3]: 141
- C.A. Ethylene Glycol 18 hr [2, 5]: 167
- C.A. Glycerol 18 hr [2, 5]: 163
- C.A. Hexadecane 18 hr [2, 5]: 122
- C.A. Water 18 hr [2, 5]: 160
- C.A. Ethylene Glycol 20 hr [2, 6]: 159
- C.A. Glycerol 20 hr [2, 6]: 164
- C.A. Hexadecane 20 hr [2, 6]: 115
- C.A. Water 20 hr [2, 6]: 165
- C.A. Ethylene Glycol 22 hr [2, 7]: 155
- C.A. Glycerol 22 hr [2, 7]: 165
- C.A. Hexadecane 22 hr [2, 7]: 118
- C.A. Water 22 hr [2, 7]: 161
- C.A. Ethylene Glycol 30 hr [2, 8]: 160
- C.A. Glycerol 30 hr [2, 8]: 167
- C.A. Hexadecane 30 hr [2, 8]: 119
- C.A. Water 30 hr [2, 8]: 168
- C.A. Ethylene Glycol 40 hr [2, 9]: 156
- C.A. Glycerol 40 hr [2, 9]: 167
- C.A. Hexadecane 40 hr [2, 9]: 124
- C.A. Water 40 hr [2, 9]: 168
- C.A. Ethylene Glycol 50 hr [2, 10]: 161
- C.A. Glycerol 50 hr [2, 10]: 163
- C.A. Hexadecane 50 hr [2, 10]: 123
- C.A. Water 50 hr [2, 10]: 163
- C.A. Ethylene Glycol 60 hr [2, 11]: 166
- C.A. Glycerol 60 hr [2, 11]: 166
- C.A. Hexadecane 60 hr [2, 11]: 117
- C.A. Water 60 hr [2, 11]: 167
- time-dependent contact angle of water, glycerol, ethylene glycol and hexadecane ([2]; thermally evaporated on silicon wafer, room temperature, two-week period): slight variation of the measured contact angles
- contact angle of olive oil drop ([2]; thermally-evaporated on silicon substrate, FIG. 3A insert): high contact angle
- C.A. Benzyl Chloride [2, 4]: 139
- C.A. Clorobenzene [2, 4]: 138
- C.A. Cyclohexane [2, 4]: 112
- C.A. Ethylene Glycol [2, 4]: 171
- C.A. Glycerol [2, 4]: 172
- C.A. Water [2, 4]: 172
- C.A. hexadecane [2, 4]: 112

SMILES: CCCCCCCCCCCCCCCCCCCCCCCCCCCCCCCCCCCC [C36, hexatriacontane]
- Roughness (RMS) [1]: 0.07-0.1 μm
- B. cereus biofilm formation on coated substrate (B. cereus 407 biofilms): Less significant inhibition of biofilm formation
- C.A. Ethylene Glycol [2, 3]: 58
- C.A. Glycerol [2, 3]: 64
- C.A. Water [2, 3]: 75
- contact angle of a water drop ([2]; thermally-evaporated on gold surface, maintained at room temperature for a week): 165 °
- C.A. Benzyl Chloride [2, 4]: Fully wetted
- C.A. Clorobenzene [2, 4]: Fully wetted
- C.A. Cyclohexane [2, 4]: Fully wetted
- C.A. Ethylene Glycol [2, 4]: 121
- C.A. Glycerol [2, 4]: 133
- C.A. Water [2, 4]: 171
- C.A. hexadecane [2, 4]: Fully wetted

Further lines, with some results ahead:

- Roughness (RMS) [1]: 0.06-0.09 μm
- C.A. Ethylene Glycol [2, 3]: 62
- C.A. Glycerol [2, 3]: 69
- C.A. Water [2, 3]: 85
- C.A. Benzyl Chloride [2, 4]: Fully wetted
- C.A. Clorobenzene [2, 4]: Fully wetted
- C.A. Cyclohexane [2, 4]: Fully wetted
- C.A. Ethylene Glycol [2, 4]: 112
- C.A. Glycerol [2, 4]: 144
- C.A. Water [2, 4]: 167
- C.A. hexadecane [2, 4]: Fully wetted
SMILES: CCCCCCCCCCCCCCCCCCCCCCCCCCCCCCCCCCCCCCCC [C40, tetracontane]
- B. cereus biofilm formation on coated substrate (B. cereus 407 biofilms): could not adhere successfully to form confluent biofilms

- C.A. Ethylene Glycol [2, 3]: 60
- C.A. Glycerol [2, 3]: 96
- C.A. Water [2, 3]: 96
- C.A. Benzyl Chloride [2, 4]: Fully wetted
- C.A. Clorobenzene [2, 4]: Fully wetted
- C.A. Cyclohexane [2, 4]: Fully wetted
- C.A. Ethylene Glycol [2, 4]: 103
- C.A. Glycerol [2, 4]: 130
- C.A. Water [2, 4]: 161
- C.A. hexadecane [2, 4]: Fully wetted
SMILES: CCCCCCCCCCCCCCCCCCCCCCCCCCCCCCCCCCCCCCCCCCCC [C44, tetratetracontane]
- P. aeruginosa biofilm formation on coated substrate (P. aeruginosa biofilm): substantially prevented the biofilm formation
- B. cereus biofilm formation on coated substrate (B. cereus 407 biofilms): could not adhere successfully to form confluent biofilms

- C.A. Benzyl Chloride [2, 4]: Fully wetted
- C.A. Clorobenzene [2, 4]: Fully wetted
- C.A. Cyclohexane [2, 4]: Fully wetted
- C.A. Ethylene Glycol [2, 4]: 100
- C.A. Glycerol [2, 4]: 111
- C.A. Water [2, 4]: 151
- C.A. hexadecane [2, 4]: Fully wetted
SMILES: CCCCCCCCCCCCCCCCCCCCCCCCCCCCCCCCCCCCCCCCCCCCCCCCCC [C50, pentacontane]

— patent publication US20220340764A1, “HYDROPHOBIC AND OLEOPHOBIC SURFACES AND USES THEREOF” (Technion Research & Development Foundation Limited, priority 2012, published 2022)
